Columns and labels:
[1] = molecular target: T1, Trypsin (porcine pancreas, Sigma-Aldrich) (Sus scrofa, UniProt P00761); assay: Trypsin inhibition (IC50 measurement); type: biochemical; conditions: at 1 h; 25°C; hydrolysis followed every 2 min for 1 h; inhibitor from 0 to 81.6 mM (so in the source); tested sample is purified Psp mixture, about 80% Psp A
T1 construct: purchased Sigma-Aldrich; host or cells: porcine pancreas
Method: Trypsin (porcine pancreas, Sigma-Aldrich) activity was measured at 25°C in a reaction mixture that contained from 0 to 81.6 mM leupeptin or pseudospumigin A and the hydrolysis was followed at every 2 min for 1 h, as described earlier (Liu et al., [2015]).

trypsin = conditions: commercial trypsin inhibitor; ref Aoyagi et al., 1969; Kurinov and Harrison, 1996; cited from earlier work
From the text: Figure 6 Time dependence of trypsin inhibition efficiency (IC50) of pseudospumigin A [•, Psp A (3) + other Psp variants], nostosin A (♦, Ns A) and spumigin E (□, Sp A, from Fewer et al., [2013]). […] Time dependent inhibition is ...

T1 sequence (P00761 9-231): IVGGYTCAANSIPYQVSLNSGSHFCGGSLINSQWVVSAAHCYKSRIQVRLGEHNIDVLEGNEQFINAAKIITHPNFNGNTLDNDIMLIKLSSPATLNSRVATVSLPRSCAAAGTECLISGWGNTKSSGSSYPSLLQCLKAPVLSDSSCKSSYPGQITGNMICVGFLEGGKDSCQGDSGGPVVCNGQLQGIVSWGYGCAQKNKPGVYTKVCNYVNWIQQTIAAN

CC[C@H](C)[C@H](NC(=O)[C@@H](CCc1ccc(O)cc1)NC(=O)[C@H](O)Cc1ccc(O)cc1)C(=O)NC(C=O)CCCNC(=N)N (some centres unmarked) [Pseudospumigin A]
IC50 [1]: 4.5 µM

Ac-Leu-Leu-Argininal [leupeptin]
time dependence of trypsin interaction (trypsin): interacts with trypsin without time dependency

Source: PMC5640712 (Frontiers in Microbiology, 2017)
